Assay results reported in US10538512B2, “Aminoacylindazole immunomodulators for treatment of autoimmune diseases” (The Rockefeller University, priority 2016, dated 2020).

Key:
Human FXIIa = target: T1, Human FXIIa (Homo sapiens, UniProt P00748); assay: Factor XIIa (FXIIa) inhibitory activity, chromogenic substrate assay; type: biochemical; conditions: Human FXIIa 12.5 nM, Pefachrome XIIa 400 μM, 10 min preincubation
T1 construct: active coagulation factor XII (FXIIa); purchased Enzyme Research Labs
T1 sequence (P00748 373-615 limits assumed): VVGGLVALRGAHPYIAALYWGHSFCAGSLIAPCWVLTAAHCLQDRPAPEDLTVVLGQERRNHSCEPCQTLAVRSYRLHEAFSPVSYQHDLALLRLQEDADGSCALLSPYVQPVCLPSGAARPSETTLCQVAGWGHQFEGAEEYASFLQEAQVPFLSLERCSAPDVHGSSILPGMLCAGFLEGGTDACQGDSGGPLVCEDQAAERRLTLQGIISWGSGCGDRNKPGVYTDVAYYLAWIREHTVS
T1 sequence (P00748 20-372 partner limits assumed): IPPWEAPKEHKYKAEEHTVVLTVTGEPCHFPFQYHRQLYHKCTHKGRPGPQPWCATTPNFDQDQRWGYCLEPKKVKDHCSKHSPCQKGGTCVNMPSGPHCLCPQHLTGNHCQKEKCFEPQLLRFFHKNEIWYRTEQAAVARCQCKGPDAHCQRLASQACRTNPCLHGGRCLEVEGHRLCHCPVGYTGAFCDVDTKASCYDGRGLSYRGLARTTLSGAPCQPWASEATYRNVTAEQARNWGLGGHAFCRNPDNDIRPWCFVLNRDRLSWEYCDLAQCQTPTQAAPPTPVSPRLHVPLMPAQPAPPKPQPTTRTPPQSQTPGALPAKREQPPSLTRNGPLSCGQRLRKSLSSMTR
Outline: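 Buffer was 0.5× HBSS with 25 mM HEPES pH 7.4 and 0.5× TBS-Tween 0.05%. Enzyme and compound (about 1–100 μM) were preincubated 10 min at room temperature, then Pefachrome XIIa was added at 400 μM final. Substrate cleavage was followed as the rate of A405 change at 37 °C.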

Human alpha-thrombin = target: T2, Human alpha-thrombin (Homo sapiens, UniProt P00734); assay: Thrombin counterscreen for selectivity, fluorogenic substrate assay; type: biochemical; conditions: Human alpha-thrombin 12.5 nM, Boc-Val-Pro-Arg-AMC 20 μM, 10 min preincubation
T2 construct: Human alpha-thrombin (Enzyme Research Labs); purchased Enzyme Research Labs
Method: Counterscreens for Selectivity:
In a 96-well white opaque plate, 80 μl of assay buffer was added to each well. Test compounds were added, and serially diluted as above, to generate a concentration range of approximately 1-100 μM. […] 80 μl of this enzyme solution was added to the assay wells. The enzyme/compound mixtures were incubated for 10 minutes at room temperature. Fluorogenic substrate (Boc-Val-Pro-Arg-7-amido-4-methylcoumarin; Sigma) was added to assay wells at a final concentration of 20 μM. The assay plate was spun for 1 minute at 1500 g and then read at 37° C. in a SpectraMax M2 plate reader (λex=380 nm and λem=460 nm). Activity was quantified as the rate of change in fluorescence, which corresponds to the rate of substrate cleavage.

Compound | IC50 (Human FXIIa) [µM] | IC50 (Human alpha-thrombin) [µM]
Cc1cc2c(C(=O)n3nc4c(c3N)CCCC4)cccc2[nH]1 (single isomer, unassigned) [Example 9, (3-Amino-4,5,6,7-tetrahydroindazol-2-yl)(2-methyl-1H-indol-4-yl)methanone] | 0.02 | 40
CCc1cscc1C(=O)n1nc2c(c1N)CCCC2 (single isomer, unassigned) [Example 11, (3-Amino-4,5,6,7-tetrahydroindazol-2-yl)(4-ethylthiophen-3-yl)methanone] | 0.2 | > 50
CCc1cscc1C(=O)n1nc(N)c2c1CCCC2 (single isomer, unassigned) [Example 12, (3-amino-4,5,6,7-tetrahydroindazol-1-yl)(4-ethylthiophen-3-yl)methanone] | > 50 | > 50
Nc1c2c(nn1C(=O)C1OCCc3ccccc31)CCCC2 (single isomer, unassigned) [Example 13, (3-Amino-4,5,6,7-tetrahydroindazol-2-yl)(isochroman-1-yl)methanone] | 5.6 | 77
Nc1nn(C(=O)C2OCCc3ccccc32)c2c1CCCC2 (single isomer, unassigned) [Example 15, (3-amino-4,5,6,7-tetrahydroindazol-1-yl)(isochroman-1-yl)methanone] | > 100 | > 100
Cc1csc(C)c1C(=O)n1nc(N)c2c1CCCC2 (single isomer, unassigned) [Example 17, (3-amino-4,5,6,7-tetrahydroindazol-1-yl)(2,4-dimethylthiophen-3-yl)methanone] | > 100 | > 100
CCc1csc(C)c1C(=O)n1nc2c(c1N)CCCC2 (single isomer, unassigned) [Example 18, (3-Amino-4,5,6,7-tetrahydroindazol-2-yl)(4-ethyl-2-methylthiophen-3-yl)methanone] | 5 | > 100
CCc1csc(C)c1C(=O)n1nc(N)c2c1CCCC2 (single isomer, unassigned) [Example 19, (3-amino-4,5,6,7-tetrahydroindazol-1-yl)(4-ethyl-2-methylthiophen-3-yl)methanone] | > 100 | > 100
Nc1c2c(nn1C(=O)c1cccc3c1ccn3-c1ccccc1)CCCC2 (single isomer, unassigned) [Example 20, (3-amino-4,5,6,7-tetrahydroindazol-2-yl)(1-phenyl-1H-indol-4-yl)methanone] | 17.5 | > 100
Cc1sc2ccccc2c1C(=O)n1nc2c(c1N)CCCC2 (single isomer, unassigned) [Example 23, (3-Amino-4,5,6,7-tetrahydroindazol-2-yl)(2-methylbenzo[b]thiophen-3-yl)methanone] | 5 | > 100
Cc1sc2ccccc2c1C(=O)n1nc(N)c2c1CCCC2 (single isomer, unassigned) [Example 24, (3-amino-4,5,6,7-tetrahydroindazol-1-yl)(2-methylbenzo[b]thiophen-3-yl)methanone] | > 100 | > 100
CC(C)c1cc2c(C(=O)n3nc4c(c3N)CCCC4)cccc2[nH]1 (single isomer, unassigned) [Example 51, (3-amino-4,5,6,7-tetrahydroindazol-2-yl)(2-isopropyl-1H-indol-4-yl)methanone] | 0.4 | > 50
Nc1c2c(nn1C(=O)c1cccc3[nH]c(C4CC4)cc13)CCCC2 (single isomer, unassigned) [Example 53, (3-amino-4,5,6,7-tetrahydroindazol-2-yl)(2-cyclopropyl-1H-indol-4-yl)methanone] | 0.02 | 28
Nc1nn(C(=O)c2cccc3[nH]c(C4CC4)cc23)c2c1CCCC2 (single isomer, unassigned) [Example 54, (3-amino-4,5,6,7-tetrahydroindazol-1-yl)(2-cyclopropyl-1H-indol-4-yl)methanone] | 30 | > 85
Nc1c2c(nn1C(=O)c1cccc3[nH]c(Cl)cc13)CCCC2 (single isomer, unassigned) [Example 55, (3-amino-4,5,6,7-tetrahydroindazol-2-yl)(2-chloro-1H-indol-4-yl)methanone] | 0.01 | 20
Nc1nn(C(=O)c2cccc3[nH]c(Cl)cc23)c2c1CCCC2 (single isomer, unassigned) [Example 56, (3-amino-4,5,6,7-tetrahydroindazol-1-yl)(2-chloro-1H-indol-4-yl)methanone] | 29 | > 100
Cc1cc2c(C(=O)n3nc4c(c3N)CCCC4)cccc2o1 (single isomer, unassigned) [Example 58, (3-amino-4,5,6,7-tetrahydroindazol-2-yl)(2-methylbenzofuran-4-yl)methanone] | 0.06 | 40
Cc1cc2c(C(=O)n3nc(N)c4c3CCCC4)cccc2o1 (single isomer, unassigned) [Example 59, (3-amino-4,5,6,7-tetrahydroindazol-1-yl)(2-methylbenzofuran-4-yl)methanone] | > 100 | > 100
Nc1c2c(nn1C(=O)c1cccc3[nH]c(Br)cc13)CCCC2 (single isomer, unassigned) [Example 62, (3-amino-4,5,6,7-tetrahydroindazol-2-yl)(2-bromo-1H-indol-4-yl)methanone] | 0.01 | 20
Nc1nn(C(=O)c2cccc3[nH]c(Br)cc23)c2c1CCCC2 (single isomer, unassigned) [Example 63, (3-amino-4,5,6,7-tetrahydroindazol-1-yl)(2-bromo-1H-indol-4-yl)methanone] | 65 | > 100
Nc1nn(C(=O)c2cccc3c2CC(=O)N3)c2c1CCCC2 (single isomer, unassigned) [Example 65, 4-(3-amino-4,5,6,7-tetrahydro-1H-indazole-1-carbonyl)indolin-2-one] | > 100 | > 100
CCc1cc2c(C(=O)n3nc(N)c4c3CCCC4)cccc2n1C (single isomer, unassigned) [Example 67, (3-amino-4,5,6,7-tetrahydroindazol-1-yl)(2-ethyl-1-methyl-1H-indol-4-yl)methanone] | > 50 | > 50
CCc1cc2c(C(=O)n3nc4c(c3N)CCCC4)cccc2n1CC (single isomer, unassigned) [Example 68, (3-amino-4,5,6,7-tetrahydroindazol-2-yl)(1,2-diethyl-1H-indol-4-yl)methanone] | 0.01 | 40
CCc1cc2c(C(=O)n3nc(N)c4c3CCCC4)cccc2n1CC (single isomer, unassigned) [Example 69, (3-amino-4,5,6,7-tetrahydroindazol-1-yl)(1,2-diethyl-1H-indol-4-yl)methanone] | 35 | > 100
C=Cc1cc2c(C(=O)n3nc4c(c3N)CCCC4)cccc2[nH]1 (single isomer, unassigned) [Example 70, (3-amino-4,5,6,7-tetrahydroindazol-2-yl)(2-vinyl-1H-indol-4-yl)methanone] | 0.02 | 13
CN1CCC(C(=O)n2nc3c(c2N)CCCC3)c2ccccc21 (single isomer, unassigned) [Example 73, (R*)-(3-amino-4,5,6,7-tetrahydroindazol-2-yl)(1-methyl-1,2,3,4-tetrahydroquinolin-4-yl)methanone] | > 50 | > 50
